Like-named read-outs stand apart in the source and are kept apart here.
Assays:
[1] = tested on: human class II OR identified in the library screening; assay: Confirmatory dose-response analysis of library-hit OR with cognate ligand, wild-type vs C-terminal domain SEQ ID NO: 221 (Table 17); conditions: for Fold improvement efficacy: maximal induction; for Detection threshold; Fold improvement efficacy: under detection threshold; for EC50: read-out: Potency, EC50 changed C-term;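 on all read-outs here: Wild-type receptor sequences expressed from the pcDNA3.1(+) vector and compared with the C-terminally modified receptors in dose-response tests using each receptor's cognate ligand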
Procedure: (§1) Selected ligand—OR pairs were then tested in a confirmatory test with a dose response analysis.
(§2) For selected receptors, the wild-type sequence was synthesized and cloned into pcDNA3.1 (+). Dose-response analysis with the cognate ligand was then performed for both the wild-type and the modified sequence.

[2] = biological target: human class II OR identified in the library screening (Homo sapiens, UniProt Q9Y4A9); assay: as above; conditions: read-out: Potency, EC50 changed C-term; OR10H1, modified C-terminus SEQ ID NO: 221 (SEQ ID NO: 679)
Target sequence in this assay (Q9Y4A9 1-297): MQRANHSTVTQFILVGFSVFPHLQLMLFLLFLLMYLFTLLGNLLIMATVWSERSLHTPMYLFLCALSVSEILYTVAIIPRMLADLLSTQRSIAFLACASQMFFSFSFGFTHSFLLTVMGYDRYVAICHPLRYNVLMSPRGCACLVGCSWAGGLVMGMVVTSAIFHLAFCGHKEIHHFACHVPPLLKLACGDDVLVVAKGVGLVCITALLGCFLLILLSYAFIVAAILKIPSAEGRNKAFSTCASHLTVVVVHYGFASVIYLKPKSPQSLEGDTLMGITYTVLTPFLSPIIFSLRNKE
Procedure: as §1, §2

[3] = biological target: human class II OR identified in the library screening (Homo sapiens, UniProt Q8NGX5); assay: as above; conditions: read-out: Potency, EC50 changed C-term; OR10K1, modified C-terminus SEQ ID NO: 221 (SEQ ID NO: 687)
Target sequence in this assay (Q8NGX5 1-292): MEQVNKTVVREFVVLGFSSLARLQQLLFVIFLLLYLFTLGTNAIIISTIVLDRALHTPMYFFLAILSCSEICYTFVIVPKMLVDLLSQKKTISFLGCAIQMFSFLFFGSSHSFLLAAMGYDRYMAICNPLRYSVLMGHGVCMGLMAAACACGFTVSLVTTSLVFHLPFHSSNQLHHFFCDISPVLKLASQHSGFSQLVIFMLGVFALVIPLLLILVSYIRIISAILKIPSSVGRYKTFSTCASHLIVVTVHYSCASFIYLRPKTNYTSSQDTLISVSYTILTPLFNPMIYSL
Procedure: as §1, §2

[4] = biological target: human class II OR identified in the library screening (Homo sapiens, UniProt Q9Y4A9)
Target sequence in this assay (Q9Y4A9 whole entry): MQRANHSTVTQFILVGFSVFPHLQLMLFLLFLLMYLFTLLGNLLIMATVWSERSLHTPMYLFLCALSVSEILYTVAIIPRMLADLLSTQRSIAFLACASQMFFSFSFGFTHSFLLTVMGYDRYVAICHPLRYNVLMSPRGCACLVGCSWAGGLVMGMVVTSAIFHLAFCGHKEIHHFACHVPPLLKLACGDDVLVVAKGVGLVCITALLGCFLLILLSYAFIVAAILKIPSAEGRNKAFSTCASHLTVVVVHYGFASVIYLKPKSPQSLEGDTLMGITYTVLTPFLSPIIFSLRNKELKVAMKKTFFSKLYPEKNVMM
Procedure: as §1, §2

[5] = biological target: human class II OR identified in the library screening (Homo sapiens, UniProt Q8NGX5)
Target sequence in this assay (Q8NGX5 whole entry, the tested form may be a part): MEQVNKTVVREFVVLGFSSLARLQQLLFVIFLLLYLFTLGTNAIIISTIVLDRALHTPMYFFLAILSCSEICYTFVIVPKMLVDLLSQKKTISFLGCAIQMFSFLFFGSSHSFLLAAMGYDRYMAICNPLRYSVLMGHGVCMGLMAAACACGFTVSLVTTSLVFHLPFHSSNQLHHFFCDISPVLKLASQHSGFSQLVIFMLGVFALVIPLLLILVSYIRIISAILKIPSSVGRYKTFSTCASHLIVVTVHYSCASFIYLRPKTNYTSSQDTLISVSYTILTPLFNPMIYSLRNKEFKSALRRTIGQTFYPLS
Procedure: as §1, §2

[6] = biological target: human class II OR identified in the library screening (Homo sapiens, UniProt Q8NG80); assay: Confirmatory dose-response analysis of library-hit OR with cognate ligand, wild-type vs C-terminal domain SEQ ID NO: 221 (Table 17); conditions: read-out: Potency, EC50 changed C-term; OR2L5, modified C-terminus SEQ ID NO: 221 (SEQ ID NO: 413);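 further: Wild-type receptor sequences expressed from the pcDNA3.1(+) vector and compared with the C-terminally modified receptors in dose-response tests using each receptor's cognate ligand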
Target sequence in this assay (Q8NG80 1-296): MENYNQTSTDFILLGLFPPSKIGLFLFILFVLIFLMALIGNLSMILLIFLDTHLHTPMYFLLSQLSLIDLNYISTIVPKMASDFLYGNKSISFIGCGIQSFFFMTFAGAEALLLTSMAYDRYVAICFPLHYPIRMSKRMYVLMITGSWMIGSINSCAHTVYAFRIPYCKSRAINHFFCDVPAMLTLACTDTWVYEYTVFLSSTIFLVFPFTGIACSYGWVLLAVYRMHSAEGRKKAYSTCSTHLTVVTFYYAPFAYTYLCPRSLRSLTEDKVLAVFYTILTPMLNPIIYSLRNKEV
Procedure: as §1, §2

[7] = biological target: human class II OR identified in the library screening (Homo sapiens, UniProt Q8NG85); assay: as above; conditions: read-out: Potency, EC50 changed C-term; OR2L3, modified C-terminus SEQ ID NO: 221 (SEQ ID NO: 412)
Target sequence in this assay (Q8NG85 1-296): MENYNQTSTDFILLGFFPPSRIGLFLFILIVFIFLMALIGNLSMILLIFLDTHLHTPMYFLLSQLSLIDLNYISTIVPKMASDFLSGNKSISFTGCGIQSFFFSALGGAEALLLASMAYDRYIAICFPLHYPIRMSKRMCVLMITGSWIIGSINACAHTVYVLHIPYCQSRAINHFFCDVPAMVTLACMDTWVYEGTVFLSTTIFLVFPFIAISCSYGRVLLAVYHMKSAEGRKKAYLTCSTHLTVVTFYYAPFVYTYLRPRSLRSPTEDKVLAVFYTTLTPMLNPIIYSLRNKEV
Procedure: as §1, §2

[8] = biological target: human class II OR identified in the library screening (Homo sapiens, UniProt Q8NG85)
Target sequence in this assay (Q8NG85 whole entry): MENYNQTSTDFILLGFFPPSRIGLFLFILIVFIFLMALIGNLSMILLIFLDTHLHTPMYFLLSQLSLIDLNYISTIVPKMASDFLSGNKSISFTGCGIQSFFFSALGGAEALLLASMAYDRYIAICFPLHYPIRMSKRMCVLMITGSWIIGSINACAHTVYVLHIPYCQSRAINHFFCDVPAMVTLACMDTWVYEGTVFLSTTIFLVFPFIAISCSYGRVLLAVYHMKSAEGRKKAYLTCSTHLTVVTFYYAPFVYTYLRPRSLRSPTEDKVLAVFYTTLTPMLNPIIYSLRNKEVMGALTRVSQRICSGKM
Procedure: as §1, §2

[9] = biological target: human class II OR identified in the library screening (Homo sapiens, UniProt Q8NG80)
Target sequence in this assay (Q8NG80 whole entry, the tested form may be a part): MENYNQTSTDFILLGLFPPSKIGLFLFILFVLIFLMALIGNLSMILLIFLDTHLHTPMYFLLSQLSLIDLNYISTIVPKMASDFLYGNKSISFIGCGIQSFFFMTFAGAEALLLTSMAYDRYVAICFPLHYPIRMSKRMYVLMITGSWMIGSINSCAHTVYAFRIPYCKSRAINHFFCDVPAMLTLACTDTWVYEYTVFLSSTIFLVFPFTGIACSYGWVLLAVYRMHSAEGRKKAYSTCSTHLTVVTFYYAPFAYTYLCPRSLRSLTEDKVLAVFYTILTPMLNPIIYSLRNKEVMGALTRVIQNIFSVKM
Procedure: as §1, §2

[10] = biological target: human class II OR identified in the library screening (Homo sapiens, UniProt Q9GZK7); assay: Confirmatory dose-response analysis of library-hit OR with cognate ligand, wild-type vs C-terminal domain SEQ ID NO: 221 (Table 17); conditions: read-out: Potency, EC50 changed C-term; OR11A1, modified C-terminus SEQ ID NO: 221 (SEQ ID NO: 702);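 further: Wild-type receptor sequences expressed from the pcDNA3.1(+) vector and compared with the C-terminally modified receptors in dose-response tests using each receptor's cognate ligand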
Target sequence in this assay (Q9GZK7 1-298): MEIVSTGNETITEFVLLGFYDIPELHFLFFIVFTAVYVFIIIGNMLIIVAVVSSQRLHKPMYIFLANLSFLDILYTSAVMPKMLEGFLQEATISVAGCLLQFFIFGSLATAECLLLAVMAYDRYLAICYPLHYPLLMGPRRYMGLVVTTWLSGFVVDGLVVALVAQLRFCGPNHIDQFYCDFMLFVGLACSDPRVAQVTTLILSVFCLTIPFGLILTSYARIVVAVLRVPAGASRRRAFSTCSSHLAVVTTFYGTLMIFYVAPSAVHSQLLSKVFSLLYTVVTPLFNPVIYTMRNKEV
Procedure: as §1, §2

[11] = biological target: human class II OR identified in the library screening (Homo sapiens, UniProt Q9GZK7); assay: as above
Target sequence in this assay (Q9GZK7 whole entry, the tested form may be a part): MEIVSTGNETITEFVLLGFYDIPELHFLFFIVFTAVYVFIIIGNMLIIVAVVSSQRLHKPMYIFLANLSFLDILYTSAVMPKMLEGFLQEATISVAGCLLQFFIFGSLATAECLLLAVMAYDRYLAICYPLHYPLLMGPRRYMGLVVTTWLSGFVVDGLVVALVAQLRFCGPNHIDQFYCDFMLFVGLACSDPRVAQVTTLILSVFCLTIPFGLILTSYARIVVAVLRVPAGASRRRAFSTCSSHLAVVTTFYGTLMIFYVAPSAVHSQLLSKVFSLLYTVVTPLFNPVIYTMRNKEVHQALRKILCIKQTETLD
Procedure: as §1, §2

[12] = biological target: human class II OR identified in the library screening (Homo sapiens, UniProt Q8NGG4)
Chain of human class II OR identified in the library screening (Homo sapiens, UniProt Q8NGG4) (Q8NGG4 whole entry): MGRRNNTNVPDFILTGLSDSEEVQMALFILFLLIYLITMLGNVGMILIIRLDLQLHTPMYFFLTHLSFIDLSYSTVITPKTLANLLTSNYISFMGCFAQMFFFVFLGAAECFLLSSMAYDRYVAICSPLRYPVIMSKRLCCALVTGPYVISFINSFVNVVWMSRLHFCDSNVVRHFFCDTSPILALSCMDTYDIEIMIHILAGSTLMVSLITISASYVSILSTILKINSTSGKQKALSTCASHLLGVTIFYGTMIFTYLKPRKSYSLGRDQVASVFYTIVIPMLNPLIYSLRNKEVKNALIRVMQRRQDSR
Procedure: as §1, §2

[13] = tested on: human class II OR identified in the library screening
Procedure: as §1, §2

[14] = biological target: human class II OR identified in the library screening (Homo sapiens, UniProt Q8NGN4); assay: Confirmatory dose-response analysis of library-hit OR with cognate ligand, wild-type vs C-terminal domain SEQ ID NO: 221 (Table 17); conditions: OR10G9, wild-type sequence;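 further: Wild-type receptor sequences expressed from the pcDNA3.1(+) vector and compared with the C-terminally modified receptors in dose-response tests using each receptor's cognate ligand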
Chain of human class II OR identified in the library screening (Homo sapiens, UniProt Q8NGN4) (Q8NGN4 whole entry, the tested form may be a part): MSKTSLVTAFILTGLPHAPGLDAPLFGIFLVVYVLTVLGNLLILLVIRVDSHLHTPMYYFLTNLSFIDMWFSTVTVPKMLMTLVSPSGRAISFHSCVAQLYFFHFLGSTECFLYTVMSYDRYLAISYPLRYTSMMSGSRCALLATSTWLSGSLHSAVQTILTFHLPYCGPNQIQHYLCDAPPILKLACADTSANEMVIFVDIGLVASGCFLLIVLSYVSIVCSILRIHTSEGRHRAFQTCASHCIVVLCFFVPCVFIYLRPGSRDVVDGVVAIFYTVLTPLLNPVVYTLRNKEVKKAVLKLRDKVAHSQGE
Procedure: as §1, §2

[15] = OR10K1, modified C-terminus SEQ ID NO: 221 vs wild-type
[16] = OR2L5, modified C-terminus SEQ ID NO: 221 vs wild-type
[17] = OR8H1, modified C-terminus SEQ ID NO: 221 vs wild-type
[18] = OR10G9, modified C-terminus SEQ ID NO: 221 (SEQ ID NO: 678)
[19] = OR10G9, modified C-terminus SEQ ID NO: 221 vs wild-type

Compound: CC(C)CCc1ccc2c(c1)OCC(=O)CO2 [7-(3-Methylbutyl)-benzo[b][1,4]dioxepin-3-one]
- Fold improvement efficacy ([1]; OR10H1, modified C-terminus SEQ ID NO: 221 vs wild-type): 10.0 fold
- Potency, Fold-improvement ([1]; OR10K1, EC50 modified C-terminus SEQ ID NO: 221 vs wild-type): 3.1 fold
- Fold improvement efficacy [1, 15]: 12.4 fold
- Detection threshold; Fold improvement efficacy [1, 15]: 63.4 fold
- EC50 [2]: 7 µM
- EC50 [3]: 2200 nM
- Detection threshold; concentration for 2-fold induction, wild-type [4]: no
- Detection threshold; concentration for 2-fold induction, wild-type [5]: 9.4 µM

Compound: CCOC(=O)C1CCCCC1 [Ethyl cyclohexanecarboxylate]
- Fold improvement efficacy ([1]; OR2L3, modified C-terminus SEQ ID NO: 221 vs wild-type): 17.1 fold
- Potency, Fold-improvement ([1]; OR2L5, EC50 modified C-terminus SEQ ID NO: 221 vs wild-type): 24.1 fold
- Fold improvement efficacy [1, 16]: 2.6 fold
- Detection threshold; Fold improvement efficacy [1, 16]: 158.8 fold
- EC50 [6]: 4.76 µM
- EC50 [7]: 86.2 µM
- Detection threshold; concentration for 2-fold induction, wild-type [8]: no
- Detection threshold; concentration for 2-fold induction, wild-type [9]: 40.5 µM

Compound: CC1CCCC2(C)CCCCC12O (stereo not drawn) [Geosmin]
- EC50 [10]: 2200 nM
- EC50 [11]: 6.8 µM

Compound: N#CC(=C1CCCCC1)c1ccccc1 [Peonile]
- Potency, Fold-improvement ([1]; OR8H1, EC50 modified C-terminus SEQ ID NO: 221 vs wild-type): 2.95 fold
- Fold improvement efficacy [1, 17]: 4.2 fold
- Detection threshold; Fold improvement efficacy [1, 17]: 15.6 fold
- EC50 ([1]; OR8H1, modified C-terminus SEQ ID NO: 221 (SEQ ID NO: 637)): 5.8 µM
- Detection threshold; concentration for 2-fold induction, wild-type [12]: 6.9 µM
- Detection threshold; concentration for 2-fold induction, changed C-term. [13]: 0.4 µM

Compound: CCOc1cc(C)ccc1O [Ultravanil]
- Detection threshold; concentration for 2-fold induction, wild-type [14]: 14.6 µM
- Potency, Fold-improvement ([1]; OR10G9, EC50 modified C-terminus SEQ ID NO: 221 vs wild-type): 4.8 fold
- Detection threshold; concentration for 2-fold induction, changed C-term. [1, 18]: 1.7 µM
- Fold improvement efficacy [1, 19]: 3.4 fold
- Detection threshold; Fold improvement efficacy [1, 19]: 8.62 fold
- EC50 [1, 18]: 19 µM

From patent publication US20260210939A1, “MODIFIED OLFACTORY RECEPTORS” (GIVAUDAN SA, priority 2022, published 2026)
